One assay concerns the target T1, serotonin 5-HT1A (Rattus norvegicus, UniProt P19327).
T1 construct: serotonin 5-HT1A (rat cerebral cortex); from tissue; host or cells: rat cerebral cortex
T1 sequence (P19327 1-422): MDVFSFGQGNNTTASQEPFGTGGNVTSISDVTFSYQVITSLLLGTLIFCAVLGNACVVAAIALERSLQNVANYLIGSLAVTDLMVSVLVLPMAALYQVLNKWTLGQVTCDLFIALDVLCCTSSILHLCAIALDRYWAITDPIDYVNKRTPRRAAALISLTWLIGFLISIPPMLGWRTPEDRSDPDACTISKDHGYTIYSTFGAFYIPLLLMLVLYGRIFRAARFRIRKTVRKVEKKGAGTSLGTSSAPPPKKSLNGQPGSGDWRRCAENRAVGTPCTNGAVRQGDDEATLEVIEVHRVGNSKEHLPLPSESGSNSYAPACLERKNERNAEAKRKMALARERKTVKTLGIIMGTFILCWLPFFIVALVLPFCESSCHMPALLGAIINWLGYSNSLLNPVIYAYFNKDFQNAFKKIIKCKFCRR
Nature of the assay: Competitive radioligand binding assay, serotonin 5-HT1A.

Assay [1] concerns the target Serotonin 5-HT2B (Human recombinant) (Homo sapiens, UniProt P41595). Nature of the assay: Competitive radioligand binding assay, serotonin 5-HT2B.
In assay [2] the target is T2, Sigma 1 (Cavia porcellus, UniProt Q60492). Nature of the assay: Sigma-1 receptor tissue bioassay, guinea pig vas deferens, agonist activity (twitch contraction). Details: Segments of guinea pig vas deferens were suspended in 20-ml organ baths; from tissue; host or cells: guinea pig vas deferens. The note with it: field-stimulated guinea pig vas deferens, compound alone.
T2 sequence (Q60492 whole entry): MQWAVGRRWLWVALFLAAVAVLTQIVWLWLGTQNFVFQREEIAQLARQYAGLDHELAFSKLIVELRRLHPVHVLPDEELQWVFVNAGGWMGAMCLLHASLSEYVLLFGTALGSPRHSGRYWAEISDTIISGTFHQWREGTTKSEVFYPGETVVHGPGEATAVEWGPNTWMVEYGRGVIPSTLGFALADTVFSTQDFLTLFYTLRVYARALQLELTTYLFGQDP

Assay [3] has as its target T3, Human muscarinic M1 receptor (Homo sapiens, UniProt P11229).
T3 construct: expressed in transfected cells; host or cells: CHO
T3 sequence (P11229 1-460): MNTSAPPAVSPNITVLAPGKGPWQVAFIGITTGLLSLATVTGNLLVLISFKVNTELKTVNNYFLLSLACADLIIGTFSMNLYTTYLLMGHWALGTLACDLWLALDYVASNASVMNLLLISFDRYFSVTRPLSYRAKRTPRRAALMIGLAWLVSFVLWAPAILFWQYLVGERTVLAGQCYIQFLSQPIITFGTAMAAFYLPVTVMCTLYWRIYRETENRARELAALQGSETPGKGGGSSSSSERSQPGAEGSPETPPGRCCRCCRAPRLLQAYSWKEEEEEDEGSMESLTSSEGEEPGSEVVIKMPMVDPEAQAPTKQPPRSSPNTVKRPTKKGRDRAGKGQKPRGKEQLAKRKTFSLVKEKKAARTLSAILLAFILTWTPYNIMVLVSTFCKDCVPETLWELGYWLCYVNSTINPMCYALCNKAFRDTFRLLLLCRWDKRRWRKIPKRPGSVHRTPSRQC
The assay is classed as cell-based. Conditions: acetylcholine-induced Ca2+ mobilization, CHO cells.
Method: After plating, a fluorescent probe (Fluo4 NW, Invitrogen), mixed with probenicid in HBSS buffer (Invitrogen) complemented with 20 mM Hepes (Invitrogen) (pH 7.4), was added into each well and equilibrated with the cells for 60 min at 37° C., followed by a second incubation for 15 min at 22° C.
Thereafter, the assay plates were positioned in a microplate reader (CellLux, PerkinElmer). After a 5-min incubation, 3 nM acetylcholine was added to all except the basal control wells to a total reaction volume of 100 uL, and changes in fluorescence intensity which vary proportionally to the free cytosolic Ca2+ ion concentration, were measured.
The stock solutions were then diluted to [10×] in HBSS and 0.1% BSA just prior to use. Maximum tolerable DMSO concentration was 0.3%.

Assay [4] deals with T4, human β-2 adrenergic receptor (Homo sapiens, UniProt P07550). Put plainly: β-2 adrenergic receptor antagonist assay, agonist-induced cAMP production (HTRF). The assay is classed as cell-based. Details: expressed in transfected cells; host or cells: HEK-293. The note with it: inhibition of isoproterenol-induced cAMP production. Here is the method: Transfected HEK-293 cells expressing human β-1 adrenergic receptor, human β-2 adrenergic receptor, and human β3 adrenergic receptor, respectively, were prepared using cloned human cDNA. See H FRIELLE, T., COLLINS, S., DANIEL, K. W., CARON, M. G., LEFKOWITZ, R. J., KOBILKA, B. K. (1987), Cloning of the cDNA for the human beta1-adrenergic receptor, Proc. Natl. Acad. Sci. U.S.A., 84,7920, and BAKER, J. G. (2005) The selectivity of Beta-adrenoreceptor antagonists at the human Beta1, Beta2 and Beta3 adrenoreceptor, Brit.
T4 sequence (P07550 whole entry): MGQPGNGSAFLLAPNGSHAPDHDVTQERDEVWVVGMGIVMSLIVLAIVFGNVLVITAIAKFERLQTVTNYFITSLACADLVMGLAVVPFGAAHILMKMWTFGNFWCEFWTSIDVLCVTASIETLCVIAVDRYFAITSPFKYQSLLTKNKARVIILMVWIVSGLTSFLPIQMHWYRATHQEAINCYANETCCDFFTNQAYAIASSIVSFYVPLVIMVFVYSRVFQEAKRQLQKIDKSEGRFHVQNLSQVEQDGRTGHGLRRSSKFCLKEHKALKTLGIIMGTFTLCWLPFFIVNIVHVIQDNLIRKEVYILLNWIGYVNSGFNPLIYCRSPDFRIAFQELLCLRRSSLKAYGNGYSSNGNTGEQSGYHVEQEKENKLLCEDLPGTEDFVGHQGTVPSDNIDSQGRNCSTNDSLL
Transfected cells were suspended in HBSS buffer (Invitrogen) complemented with 20 mM HEPES (pH 7.4) and 500 μM IBMX. […] The cells were then distributed in 96 well microplates (see FIG. 15 for plating densities).
After plating, the cells were induced by adding reference agonist. See FIG. 15 for reference agonists and concentrations used for each assay. […] The cells were then incubated 30 minutes at room temperature.
Subsequently, the cells were lysed and a fluorescence acceptor (D2-labeled cAMP) and a fluorescence donor (anti-cAMP antibody labeled with europium cryptate) were added to the wells.
Standard reference antagonists were tested in each experiment at several concentrations to generate a concentration-response curve from which its IC50 value is calculated.
EC50 values (concentration producing a half-maximal response) and IC50 values (concentration causing a half-maximal inhibition of the control agonist response) were determined by non-linear regression analysis of the concentration-response curves generated with mean replicate values using Hill equation curve fitting: […]
For the antagonists, the apparent dissociation constants (KB) were calculated using the modified Cheng Prusoff equation:
KB=IC50/[1+(A/EC50A)], where
On the technique in general: Changes in cAMP serve as a functional read-out for many G protein-coupled receptors.

Assay [5] relates to Swiss OF-1 mice. The note with it: female BKTO mice, O'Neill & Conway (2001); cited from earlier work.
Another assay concerns rats. Conditions: cited from earlier work.
Assay [6] deals with Swiss OF-1 mice. Nature of the assay: Forced swim test (FST) in mice. Conditions: acute IP injection, lower doses not active.
Assay [7] concerns the target Serotonin 5-HT7 (Human recombinant) (Homo sapiens, UniProt P34969). Put plainly: Competitive radioligand binding assay, serotonin 5-HT7.
The target in assay [8] is T2, Sigma 1. Put plainly: Competitive radioligand binding assay, Sigma 1. Details: species or system Guinea pig.
A further assay addresses hNav1.5 (Homo sapiens, UniProt Q14524). Nature of the assay: Ion channel profiling, IonFlux HT automated patch clamp, hNav1.5. (In general: The patch-clamp technique gives a direct electrical read-out from membranes.)
Assay [9] relates to Swiss OF-1 mice. Put plainly: Spontaneous alternation in the Y-maze, dizocilpine-induced deficit. The note with it: IP; 0.1 mg/kg not active. The assay is classed as in vivo, mouse.
Assay [10] relates to Swiss OF-1 mice. Put plainly: Step-through passive avoidance, dizocilpine-induced deficit. It is filed as in vivo, mouse. Conditions: IP; 0.1 mg/kg not active.
The test system of the next assay is DBA/1 mice. Conditions: comparator value, no test described; cited from earlier work.
Assay [11] deals with T5, β-Adrenergic (Non-selective).
T5 construct: β-1 adrenergic; other: test article 1×10^−6 and 1×10^−5 mol/L; rat brain
Put plainly: Competitive radioligand binding assay, β-adrenergic (non-selective). Details: species or system Rat.

Assay [12] has as its target T4, human β-2 adrenergic receptor. Put plainly: Competitive radioligand binding assay, β2-adrenergic.
The next assay addresses T6, Muscarinic M1 (Rattus norvegicus, UniProt P08482).
T6 construct: Muscarinic M1 (Rat cerebral cortex); from tissue; host or cells: rat cerebral cortex
T6 sequence (P08482 1-460): T3 sequence (P11229 1-460) with A5V, T254S, P309S, R320K, A337G, I413V
Nature of the assay: Competitive radioligand binding assay, muscarinic M1.

Another assay concerns T7, Na channel.
T7 construct: other: test article 1×10^−6 and 1×10^−5 mol/L; rat brain
Put plainly: Competitive radioligand binding assay, Na channel. Details: species or system Rat.

The subject of another assay is Sigma non-selective. Nature of the assay: Competitive radioligand binding assay, sigma non-selective. Details: species or system Guinea pig.
Assay [13] deals with T2, Sigma 1. Put plainly: Sigma-1 receptor tissue bioassay, guinea pig vas deferens, antagonist activity ((+)SKF-10047-induced response). Details: Segments of guinea pig vas deferens were suspended in 20-ml organ baths; from tissue; host or cells: guinea pig vas deferens. The note with it: field-stimulated guinea pig vas deferens, (+)SKF-10047 100 μM.
The mark [14] stands for this setting: Example 3, Ki=IC50/(1+L/Kd), IC50 expressed in mol/L, read-out: Ki, 5-HT1A.
Where [15] appears, read: test article 1×10^−6 and 1×10^−5 mol/L, rat brain.
Setting [16] is: Example 2, seven concentrations.
[17] abbreviates: test article 1×10^−6 and 1×10^−5 mol/L, rat cerebral cortex.

Here are results for 10 compounds from US20220370381A1 (priority 2016, published 2022).

Molecules are shown by their SMILES. Where a chain is given by its changes, count along the chain named. Read-outs that look alike come from different tables or passages of the source.

Sequence of Serotonin 5-HT7 (Human recombinant) (P34969 whole entry): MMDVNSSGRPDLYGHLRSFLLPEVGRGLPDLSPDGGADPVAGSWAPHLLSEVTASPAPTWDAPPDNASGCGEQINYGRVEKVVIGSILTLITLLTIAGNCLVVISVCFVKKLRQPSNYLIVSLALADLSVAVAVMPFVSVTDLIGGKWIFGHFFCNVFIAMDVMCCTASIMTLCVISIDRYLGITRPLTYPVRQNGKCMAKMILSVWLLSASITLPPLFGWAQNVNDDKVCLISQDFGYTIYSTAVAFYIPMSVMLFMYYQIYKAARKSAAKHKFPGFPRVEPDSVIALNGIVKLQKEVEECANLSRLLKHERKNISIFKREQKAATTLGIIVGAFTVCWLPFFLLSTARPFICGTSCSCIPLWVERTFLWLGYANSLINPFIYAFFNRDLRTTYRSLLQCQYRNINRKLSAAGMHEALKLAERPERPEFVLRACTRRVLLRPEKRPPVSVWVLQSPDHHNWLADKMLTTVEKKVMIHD
Sequence of hNav1.5 (Q14524 whole entry): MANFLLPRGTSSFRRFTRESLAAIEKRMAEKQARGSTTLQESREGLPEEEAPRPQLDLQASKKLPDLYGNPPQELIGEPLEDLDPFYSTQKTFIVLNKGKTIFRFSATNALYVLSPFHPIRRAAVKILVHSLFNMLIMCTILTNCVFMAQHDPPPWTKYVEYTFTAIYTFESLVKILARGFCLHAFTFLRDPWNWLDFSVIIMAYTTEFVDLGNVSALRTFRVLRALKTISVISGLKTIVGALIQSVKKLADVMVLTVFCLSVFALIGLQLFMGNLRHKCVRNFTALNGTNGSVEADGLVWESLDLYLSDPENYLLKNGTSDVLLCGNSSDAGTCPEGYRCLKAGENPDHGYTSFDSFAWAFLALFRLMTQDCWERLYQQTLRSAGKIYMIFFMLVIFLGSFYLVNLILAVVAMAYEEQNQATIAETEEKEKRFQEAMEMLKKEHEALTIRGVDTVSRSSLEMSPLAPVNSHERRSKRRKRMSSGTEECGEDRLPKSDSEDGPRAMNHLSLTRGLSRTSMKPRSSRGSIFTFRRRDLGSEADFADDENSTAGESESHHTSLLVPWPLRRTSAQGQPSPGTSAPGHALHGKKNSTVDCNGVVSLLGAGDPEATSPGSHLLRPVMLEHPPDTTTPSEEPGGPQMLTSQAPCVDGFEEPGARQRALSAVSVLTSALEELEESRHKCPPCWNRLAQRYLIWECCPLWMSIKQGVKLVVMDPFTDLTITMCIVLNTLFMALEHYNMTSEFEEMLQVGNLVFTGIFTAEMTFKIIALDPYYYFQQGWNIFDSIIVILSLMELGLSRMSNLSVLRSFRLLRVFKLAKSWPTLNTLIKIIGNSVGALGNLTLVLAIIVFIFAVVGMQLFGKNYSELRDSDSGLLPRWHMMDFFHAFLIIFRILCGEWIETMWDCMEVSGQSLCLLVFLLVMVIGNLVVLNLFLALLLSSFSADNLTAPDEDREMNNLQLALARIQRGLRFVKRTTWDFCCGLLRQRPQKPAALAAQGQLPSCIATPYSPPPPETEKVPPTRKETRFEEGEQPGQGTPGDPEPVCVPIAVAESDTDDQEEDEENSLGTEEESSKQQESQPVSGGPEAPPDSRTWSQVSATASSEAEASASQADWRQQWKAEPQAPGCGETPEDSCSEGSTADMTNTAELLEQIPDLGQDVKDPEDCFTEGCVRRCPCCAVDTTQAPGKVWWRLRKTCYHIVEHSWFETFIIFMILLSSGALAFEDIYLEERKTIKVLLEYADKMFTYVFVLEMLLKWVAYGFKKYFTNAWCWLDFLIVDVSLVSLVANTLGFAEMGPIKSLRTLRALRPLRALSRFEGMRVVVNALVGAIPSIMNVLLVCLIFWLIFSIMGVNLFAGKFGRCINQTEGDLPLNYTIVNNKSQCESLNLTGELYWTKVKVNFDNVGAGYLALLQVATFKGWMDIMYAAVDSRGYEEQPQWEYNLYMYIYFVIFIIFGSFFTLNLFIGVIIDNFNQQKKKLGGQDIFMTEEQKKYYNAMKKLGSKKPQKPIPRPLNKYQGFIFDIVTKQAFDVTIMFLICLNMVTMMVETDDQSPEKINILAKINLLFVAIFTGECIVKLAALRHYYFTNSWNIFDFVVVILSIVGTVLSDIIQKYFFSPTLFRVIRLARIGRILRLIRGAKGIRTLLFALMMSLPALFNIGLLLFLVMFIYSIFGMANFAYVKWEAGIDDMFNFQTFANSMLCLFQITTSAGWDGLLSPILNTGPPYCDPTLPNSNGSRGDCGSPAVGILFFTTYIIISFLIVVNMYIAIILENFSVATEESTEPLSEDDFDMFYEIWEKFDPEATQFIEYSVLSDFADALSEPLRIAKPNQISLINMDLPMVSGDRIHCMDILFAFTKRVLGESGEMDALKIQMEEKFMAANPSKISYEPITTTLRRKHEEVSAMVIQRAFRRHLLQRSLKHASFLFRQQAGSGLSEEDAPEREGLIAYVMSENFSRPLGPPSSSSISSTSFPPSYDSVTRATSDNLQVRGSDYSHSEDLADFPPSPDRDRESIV
Sequence of Serotonin 5-HT2B (Human recombinant) (P41595 whole entry): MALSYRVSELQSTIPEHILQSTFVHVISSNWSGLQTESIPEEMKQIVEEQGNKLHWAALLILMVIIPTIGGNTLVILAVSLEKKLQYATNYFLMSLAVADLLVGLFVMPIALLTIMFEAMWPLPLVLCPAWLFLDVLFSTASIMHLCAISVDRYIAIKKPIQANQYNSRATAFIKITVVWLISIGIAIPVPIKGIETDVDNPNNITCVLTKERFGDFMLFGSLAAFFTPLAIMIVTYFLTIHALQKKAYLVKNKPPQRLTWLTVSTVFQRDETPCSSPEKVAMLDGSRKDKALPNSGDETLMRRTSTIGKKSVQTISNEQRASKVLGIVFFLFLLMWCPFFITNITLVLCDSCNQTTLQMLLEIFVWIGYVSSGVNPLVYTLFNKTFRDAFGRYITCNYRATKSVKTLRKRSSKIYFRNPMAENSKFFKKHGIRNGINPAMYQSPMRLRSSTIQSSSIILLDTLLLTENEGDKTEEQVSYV

As to `CC(N)Cc1cccc(C(F)(F)F)c1` (single isomer, unassigned; (+)) [(+)norfenfluramine], the Ki (as a rule, the equilibrium dissociation constant of an inhibitor or competing ligand from its target) at serotonin 5-HT1A (setting [14]) was found to be 1140 nM; in assay [1], 242 nM. Besides, the “effect on twitch contraction amplitude” value on Sigma 1 [2] is “concentration-dependent decrease”.
On to `CC(N)Cc1cccc(C(F)(F)F)c1` (single isomer, unassigned; (-)) [(−)norfenfluramine], for which the results for the Ki (on serotonin 5-HT1A (setting [14]); in assay [1]) were 409 nM and 1200 nM, respectively. For the same compound, in assay [3], the “antagonist activity at the muscarinic M1 receptor” value was “some antagonist activity”. In addition, the “antagonist activity at the beta-2 adrenergic receptor” value in [4] was “antagonist activity”. The “effect on twitch contraction amplitude” value at Sigma 1 [2] is “more complex behavior”.
For `CCN[C@@H](C)Cc1cccc(C(F)(F)F)c1` [(+)fenfluramine], the “antagonist activity at the beta-2 adrenergic receptor” value in assay [4] was “antagonist activity”.
Turning to `Br.CCCN(CCC)C1CCc2cccc(O)c2C1` (centres unmarked) [Compound 8-OH-DPAT, 7-(Dipropylamino)-5,6,7,8-tetrahydronaphthalen-1-ol hydrobromide], the “active dose in forced swim test published previously” value in the assay on Swiss OF-1 mice [5] is 0.25 to 1 mg/kg; in the assay on rats (male CD-COBS rats, Cervo & Samanin (1987)) it was 0.25 to 0.5 mg/kg; in the assay on rats (male Sprague-Dawley rats, Singh & Lucki (1993)) it was 0.5 mg/kg. Besides, in the assay with Swiss OF-1 mice [6], the “dose reducing immobility duration in the FST” value was 3 mg/kg.
As for `CCN[C@@H](C)Cc1cccc(C(F)(F)F)c1` [Dexfenfluramine], the IC50 (in general, the midpoint of a concentration-inhibition curve) on serotonin 5-HT1A was 1290 nM; in assay [7] it was 7520 nM; at Sigma 1 [8], 125 nM; on hNav1.5, greater than 30000 nM. Also, the Ki at serotonin 5-HT1A was found to be 711 nM; in assay [7], 7100 nM; on Sigma 1 [8], 109 nM.
Regarding `CC[C@@](C/C=C/c1ccccc1)(c1ccccc1)N(C)CC1CC1.Cl` [Igmesine, (R)-(+)-N-Cyclopropylmethyl-α-ethyl-N-methyl-α-[(2E)-3-phenyl-2-propenyl)benzenemethanamine hydrochloride], the “dose reducing immobility duration in the FST” value in the assay with Swiss OF-1 mice [6] is given as 30 mg/kg.
With `Cl.O=C(OCCN1CCOCC1)C1(c2ccccc2)CCCCC1` [PRE-084, 2-(4-Morpholinethyl)-1-phenylcyclohexanecarboxylate hydrochloride], the “dose attenuating dizocilpine-induced deficit in spontaneous alternation” value in the assay with Swiss OF-1 mice [9] was determined as 0.3 mg/kg. Besides, the “dose attenuating dizocilpine-induced deficit in passive avoidance response (minimal active dose)” value with Swiss OF-1 mice [10] was 0.3 mg/kg.
For `CNCCC(Oc1ccc(C(F)(F)F)cc1)c1ccccc1` (centres unmarked) [fluoxetine], the “ED50, blockade of S-IRA (comparison value)” value with DBA/1 mice is recorded as 22.2 mg/kg.
As to `CC(N)Cc1cccc(C(F)(F)F)c1` (centres unmarked) [norfenfluramine], the “binding relative to positive controls” value in assay [11] (Example 2, seven concentrations, β-1 adrenergic) was “moderate binding”; in assay [12] (setting [16]) it was “moderate binding”; on Muscarinic M1 (setting [16]), “moderate binding”; with Na channel (setting [16]), “moderate binding”; at serotonin 5-HT1A (setting [16]), “moderate binding”; with Sigma non-selective (setting [16]) it was “moderate binding”. Moreover, the “inhibition of receptor binding (tracer)” value was “significantly inhibit” in assay [11] (setting [15]); “significantly inhibit” in assay [12] (test article 1×10^−6 and 1×10^−5 mol/L, human recombinant); “significantly inhibit” on Muscarinic M1 (setting [17]); “significantly inhibit” in the assay on Na channel (setting [15]); “significantly inhibit” on serotonin 5-HT1A (setting [17]); “significantly inhibit” with Sigma non-selective (test article 1×10^−6 and 1×10^−5 mol/L, guinea pig brain). Also, the “antagonist activity at the beta-2 adrenergic receptor” value in assay [4] was “some antagonist activity”. The “activity at the Nav1.5 ion channel” value on hNav1.5 (patch clamp, 0.37-30 μM) is “weak antagonist”. The “effect on twitch contraction amplitude” value on Sigma 1 [2] (listed as Racemic norfenfluramine) is recorded as “concentration-dependent decrease”. The “effect on the (+)SKF-10,047-induced increase in twitch contraction amplitude” value at Sigma 1 [13] is “concentration-dependent inhibition”.
Turning to `C[C@@H]1CN(CCCn2c3ccccc3c3ccccc32)C[C@H](C)N1` [rimcazole], the “effect on the (+)SKF-10,047-induced increase in twitch contraction amplitude” value on Sigma 1 [13] was “inhibited”.
